Here are results for 29 compounds from PubChem BioAssay (NCI).

“And” between values parts separate entries of the source, which are not always exact repeats. Identical values can stand only once.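 Where inhibition never reached the appropriate level, the endpoint shown equals the highest concentration tested. Otherwise, values were interpolated linearly from a five-concentration, 48-hour dose response in 96-well plates. At the GI50, growth is halved. The concentration for full growth arrest is given as TGI.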

Some test systems named below: A498 renal; CCRF-CEM leukemia; K-562 leukemia; SF-539 CNS; UO-31 renal; OVCAR-4 ovarian.
Common to all, as to experiment: growth of human tumour cells (NCI), 48 h

`O=C(N/N=C(/c1nc2ccc(Cl)cc2[nH]c1=O)C(O)c1ccc(Cl)cc1Cl)c1ccncc1` (stereo not drawn): the TGI in the test with A498 renal, in the test on CCRF-CEM leukemia, in the test on K-562 leukemia, in the test on SF-539 CNS and in the test with UO-31 renal was above 100 µM in each case.
`CC1=NNC(=NCCN(C)C)C/C1=C/c1ccccc1Cl`: the TGI in the test with A498 renal, with OVCAR-4 ovarian, with SF-539 CNS and in the test on UO-31 renal was above 100 µM in each case.
In the case of `COc1ccc2cccc(C(=O)c3ccc(C)c4c3CCC4)c2c1`, the TGI is 83.7 µM in the test with A498 renal; above 100 µM in the test on CCRF-CEM leukemia; above 100 µM with K-562 leukemia; above 100 µM in the test with OVCAR-4 ovarian; 82.4 µM with UO-31 renal.
Regarding `CC(C)(C)N=C1CC(C)(C)c2ccccc2C(=Nc2ccccc2)S1`, the TGI in the test with A498 renal, with CCRF-CEM leukemia, in the test on K-562 leukemia, with SF-539 CNS and in the test with UO-31 renal was above 100 µM each time.
On to `Cc1nc(C)c(C(=O)Nc2cccc3c2C(=O)NC3=O)cc1C(=O)Nc1cccc2c1C(=O)NC2=O`, for which the TGI with A498 renal, in the test on CCRF-CEM leukemia, in the test with K-562 leukemia, in the test with OVCAR-4 ovarian, in the test on SF-539 CNS and with UO-31 renal was above 100 µM in each case.
Consider `CN1CCn2c(Br)ccc2C1=O`, for which the TGI in the test with A498 renal, in the test with CCRF-CEM leukemia, in the test with K-562 leukemia, in the test with OVCAR-4 ovarian, with SF-539 CNS and in the test on UO-31 renal was above 100 µM throughout.
Take `CC#C[C@@]1(O)CCCC[C@@H]1O`: the TGI in the test with A498 renal, in the test with CCRF-CEM leukemia, with K-562 leukemia, in the test with OVCAR-4 ovarian, with SF-539 CNS and in the test on UO-31 renal was above 100 µM each time.
Turning to `CCCCc1c2c(nc3c1CCc1cc4c(nc1-3)-c1nc3c(c(CCCC)c1CC4)CCC/C3=C\c1ccccc1)/C(=C/c1ccccc1)CCC2`, the TGI in the test on A498 renal, with CCRF-CEM leukemia, in the test on K-562 leukemia, in the test on SF-539 CNS and with UO-31 renal was above 100 µM in each case.
With `CCC1C(C)c2c([nH]c3ccccc23)C2C(=O)N(c3ccccc3)C(=O)C21` (stereo not drawn), the TGI was found to be 71.9 µM in the test on CCRF-CEM leukemia, 44.3 µM in the test with K-562 leukemia, 38 µM in the test with OVCAR-4 ovarian and 34.5 µM in the test with SF-539 CNS.
For the compound `c1ccc2c(CNCCCCCCNCc3cccc4ccccc34)cccc2c1`, the TGI with A498 renal worked out at 33.6 µM; in the test on CCRF-CEM leukemia, 9.62 µM; in the test on K-562 leukemia, 3.22 µM; with OVCAR-4 ovarian, 28.9 µM; in the test on SF-539 CNS it was 3.48 µM; in the test on UO-31 renal it was 23.9 µM.
In the case of `CC(C)[C@@H]1C=C(c2ccccc2)c2ccccc2C1C(C#N)(C#N)C(C)C` (stereo partly drawn), the TGI with A498 renal, in the test on CCRF-CEM leukemia, with K-562 leukemia, with OVCAR-4 ovarian, in the test on SF-539 CNS and in the test with UO-31 renal was above 100 µM in each case.
Consider `CCCCCCCCCCCC(=O)OCC1OC(n2cc(F)c(=O)[nH]c2=O)C(NC(=O)OCc2ccccc2)C(O)C1O` (stereo not drawn), for which the TGI came out at 51.4 µM in the test with A498 renal; 41.7 µM with CCRF-CEM leukemia; 52.3 µM with K-562 leukemia; 63.9 µM in the test with OVCAR-4 ovarian; 49.4 µM in the test on SF-539 CNS; 93 µM with UO-31 renal.
Take `N#Cc1cccc(NC(=O)c2ccc(C(=O)O)c(C(=O)c3ccc(C(=O)O)c(C(=O)Nc4cccc(C#N)c4)c3)c2)c1`: the TGI with A498 renal, in the test with CCRF-CEM leukemia, in the test on K-562 leukemia, in the test on OVCAR-4 ovarian, with SF-539 CNS and with UO-31 renal was above 100 µM throughout.
For the compound `N/C(=N\NS(=O)(=O)c1ccccc1)Oc1ccc(Cl)cc1`, the TGI in the test with A498 renal, in the test with CCRF-CEM leukemia, in the test on K-562 leukemia, in the test with OVCAR-4 ovarian, with SF-539 CNS and with UO-31 renal was above 100 µM each time.
With `COc1cc([C@@H]2c3cc4c(cc3[C@@H](NC(=O)c3ccc(N)cc3)C3COC(=O)[C@@H]32)OCO4)cc(OC)c1O` (stereo partly drawn), the TGI in the test with A498 renal is 11.8 µM; in the test with CCRF-CEM leukemia, 13.1 µM; with K-562 leukemia it was 37.7 µM; with OVCAR-4 ovarian, above 100 µM; in the test on SF-539 CNS it was 3.87 µM; in the test on UO-31 renal it was 31.1 µM.
On to `COC(=O)C1=C(OC)c2cc3c(cc2C(c2cc(OC)c(OC)c(OC)c2)C1C(=O)OC)OCO3` (stereo not drawn), for which the TGI in the test on A498 renal, with CCRF-CEM leukemia, in the test with K-562 leukemia, in the test with OVCAR-4 ovarian, in the test on SF-539 CNS and with UO-31 renal was above 100 µM each time.
Turning to `Cn1cnc([N+](=O)[O-])c1Sc1ccccn1`, the TGI with A498 renal, in the test with CCRF-CEM leukemia, with K-562 leukemia, in the test with OVCAR-4 ovarian, with SF-539 CNS and in the test on UO-31 renal was above 100 µM each time.
In the case of `C=CN1C(=O)OC(c2ccccc2)C1c1ccccc1` (stereo not drawn), the GI50 with A498 renal, in the test with CCRF-CEM leukemia, with OVCAR-4 ovarian and in the test on UO-31 renal was above 100 µM throughout. Besides, the TGI in the test with A498 renal, in the test on CCRF-CEM leukemia, in the test with K-562 leukemia, in the test on OVCAR-4 ovarian, in the test with SF-539 CNS and with UO-31 renal was above 100 µM in each case.
For `Cc1cnc[nH]c1=O`, the TGI in the test with A498 renal, in the test on CCRF-CEM leukemia, in the test with K-562 leukemia, in the test on OVCAR-4 ovarian and with UO-31 renal was above 100 µM throughout.
As for `CCOc1ccc2[nH]c3c(C)c4cc[n+](C)cc4c(C)c3c2c1`, the GI50 with A498 renal was 11.1 µM and 48 µM. Also, the TGI with A498 renal was above 100 µM; in the test on CCRF-CEM leukemia it was 23.7 µM and 37.3 µM; with K-562 leukemia it was 24.5 µM and 18.3 µM; in the test with OVCAR-4 ovarian, 15.2 µM and 26.2 µM; in the test with SF-539 CNS it was 1.63 µM and 2.65 µM; in the test with UO-31 renal, above 100 µM.
On to `Cc1cc(C)cc(-n2c3nc(=O)n(C)c(=O)c-3nc3ccccc32)c1`, for which the TGI with A498 renal was above 100 µM; in the test with CCRF-CEM leukemia it was 61 µM; in the test on K-562 leukemia, 65.3 µM; in the test with OVCAR-4 ovarian, 41.5 µM; with SF-539 CNS, 49.7 µM; in the test on UO-31 renal, above 100 µM.
Take `Cc1c[nH]c2c1C13CC1CN(C(=O)c1cc4cc(NC(=O)c5cc6ccccc6o5)ccc4[nH]1)C3=CC2=O` (stereo not drawn): the GI50 in the test with CCRF-CEM leukemia, in the test with K-562 leukemia, in the test on OVCAR-4 ovarian and in the test with UO-31 renal was above 1.17 ng/mL in each case. The TGI is 0.0682 µM in the test on CCRF-CEM leukemia, below 0.001 µM in the test with OVCAR-4 ovarian and below 0.001 µM with SF-539 CNS.
As to `Cc1cc(NS(=O)(=O)c2ccc(Nc3c4ccccc4nc4c(C(=O)Nc5ccc(S(=O)(=O)N=C(N)N)cc5)cccc34)cc2)no1`, the TGI in the test with A498 renal, in the test with CCRF-CEM leukemia, in the test with K-562 leukemia, in the test on OVCAR-4 ovarian, in the test with SF-539 CNS and in the test with UO-31 renal was above 100 µM throughout.
Regarding `CCOC(=O)C1N(S(=O)(=O)c2ccc(C)cc2)CCC12c1ccccc1N(C(C)=O)C2C(/C=C/C(=O)OC)=C/C(=O)OC` (stereo not drawn), the TGI in the test on A498 renal, in the test with CCRF-CEM leukemia, in the test with K-562 leukemia, with OVCAR-4 ovarian, in the test with SF-539 CNS and in the test with UO-31 renal was above 100 µM throughout.
For the compound `C[Si](C)(C)/C=C/CCC(C=O)(CCCl)c1ccccc1` (stereo not drawn), the TGI with A498 renal, in the test with CCRF-CEM leukemia, in the test on K-562 leukemia, in the test with SF-539 CNS and in the test on UO-31 renal was above 100 µM throughout.
Turning to `O=C(CC(=O)N1N=C(c2ccccc2)C(N=Nc2ccc(C(=O)O)cc2)C1=O)Nc1ccc(F)cc1` (stereo not drawn), the TGI in the test with A498 renal was 81.7 µM; in the test on K-562 leukemia it was above 100 µM; in the test on OVCAR-4 ovarian, above 100 µM; in the test on SF-539 CNS, 54.5 µM; in the test with UO-31 renal, 73.4 µM.
As to `COC(=O)/C=C/C(=O)C1C(C(=O)OC)C2(C(=O)OC)CCC1(C(=O)OC)N2` (stereo not drawn), the TGI in the test on K-562 leukemia, in the test on OVCAR-4 ovarian, in the test with SF-539 CNS and with UO-31 renal was above 100 µM each time.
Consider `CC1(O)C=CC2CCC1C2O` (stereo not drawn), for which the TGI in the test with A498 renal, in the test with CCRF-CEM leukemia, with K-562 leukemia, with OVCAR-4 ovarian, with SF-539 CNS and with UO-31 renal was above 100 µM throughout.
In the case of `COC(=O)C[CH](C(=O)OC)[Ge]([CH3])([CH3])[S]c1ccccc1` (stereo not drawn), the GI50 is 19.7 µM in the test on A498 renal; 1.67 µM in the test on CCRF-CEM leukemia; 17.4 µM in the test with K-562 leukemia; 18.1 µM in the test with OVCAR-4 ovarian; 22.1 µM in the test with SF-539 CNS; 7.06 µM in the test with UO-31 renal. The TGI was 60.9 µM in the test with A498 renal; 6.25 µM with CCRF-CEM leukemia; above 100 µM in the test with K-562 leukemia; 72.4 µM in the test with OVCAR-4 ovarian; 39.7 µM with SF-539 CNS; 21 µM with UO-31 renal.
